Results on one cell line are retold here after the supplement of paper PMC10307832.

What all share (assay): relative viability (nuclei count vs DMSO), 5 days (fraction); higher = more cells survive
Compound in experiment [1]: O=C1NC(=O)[C@@H](c2cn3c4c(cccc24)CCC3)[C@@H]1c1c[nH]c2ccccc12 [Tivantinib] + Cc1nc(NC(=O)N2CCC[C@H]2C(N)=O)sc1-c1ccnc(C(C)(C)C(F)(F)F)c1 [Alpelisib] (partner 2 µM)
The method, boiled down:
(§1)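 Lung cancer cell lines were pin-tool dosed in 1536-well plates on the day after seeding, with either a lone drug or a fixed anchor-drug dose plus five library-drug doses (not always all listed) in √10 steps. Nuclei were counted on 4× images after 5 days. Relative viability is the ratio of treated-well to vehicle-well nuclei counts, with each value a median of duplicate plates.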

Compound in experiment [2]: O=C1NC(=O)[C@@H](c2cn3c4c(cccc24)CCC3)[C@@H]1c1c[nH]c2ccccc12 [Tivantinib] + O=C(CCCCCCC(=O)Nc1ccccc1)NO [Vorinostat] (partner 1 µM)
The method, boiled down:
as §1

Compound in experiment [3]: CC1(COc2ccc3c(c2)ncn3-c2ccc3cccc(N4CCC(N)CC4)c3n2)COC1 [Crenolanib] + Nc1nc2[nH]cc(CCc3ccc(C(=O)N[C@@H](CCC(=O)O)C(=O)O)cc3)c2c(=O)[nH]1 [Pemetrexed] (partner 0.2 µM)
The method, boiled down: as §1

Compound in experiment [4]: CC1(COc2ccc3c(c2)ncn3-c2ccc3cccc(N4CCC(N)CC4)c3n2)COC1 [Crenolanib] + C[C@@H](Oc1cc(-c2cnn(C3CCNCC3)c2)cnc1N)c1c(Cl)ccc(F)c1Cl [Crizotinib] (partner 1 µM)
The method, boiled down: as §1

For UMC-11, the relative viability in experiment [1] (first compound 0.01 µM) came to 0.961; in experiment [1] (first compound 0.03162 µM), 0.939; in experiment [1] (first compound 0.1 µM) it was 0.876; in experiment [1] (first compound 0.3162 µM), 0.939; in experiment [2] (first compound 0.01 µM), 0.383; in experiment [2] (first compound 0.03162 µM), 0.392. Further, the relative viability in experiment [2] (first compound 0.1 µM) stood at 0.328; in experiment [2] (first compound 0.3162 µM) it was 0.385; in experiment [3] (first compound 0.01 µM), 0.791; in experiment [3] (first compound 0.03162 µM), 0.755; in experiment [3] (first compound 0.1 µM), 0.738; in experiment [3] (first compound 0.3162 µM), 0.832. Further, the relative viability was 0.741 in experiment [3] (first compound 1 µM); 0.624 in experiment [4] (first compound 0.01 µM); 0.568 in experiment [4] (first compound 0.03162 µM); 0.674 in experiment [4] (first compound 0.1 µM); 0.804 in experiment [4] (first compound 0.3162 µM); 0.606 in experiment [4] (first compound 1 µM).
